Results on three compounds are retold here after patent US20160361257A1, “COMPOSITION FOR INCREASING TESTOSTERONE LEVELS AND ENHANCING LIBIDO” (priority 2015, published 2016).

For orientation: half-life means the time in which the quantity being followed falls by half.

Data set [1] in a line: half-life when delivered sublingually or transmucosally. To be noted: in vivo. How it is done: 7-methoxyflavone is an aromatase inhibitor. Aromatase inhibitors work by inhibiting the action of the enzyme aromatase, which converts androgens into estrogens by a process called aromatization. 7-methoxyflavone is a compound having poor bioavailability of about 5% when ingested. According to an embodiment of the present invention, from about 5 mg to 50 mg, and preferably from about 20 mg to 30 mg of 7-methoxyflavone may be included in the formulations and dosage forms of the present invention, when delivered sublingually or transmucosally. […] According to an embodiment, the 7-methoxyflavone may be from a plant extract. 7-methoxyflavone has been found in Meliaceae and Rutaceae plants. According to an embodiment, the 7-methoxyflavone may therefore be from an extract containing at least 90% 7-methoxyflavone, standardized. Preferably, extract contains at least […] 7-methoxyflavone, standardized.
According to an embodiment of the present invention, from about 5 mg to 50 mg, and preferably from about 20 mg to 30 mg of 7,8-benzoflavone may be included in the formulations and dosage forms of the present invention, when delivered sublingually or transmucosally. According to an embodiment, the half-life of 7,8-benzoflavone is about 1-2h when delivered sublingually or transmucosally.

The conditions of data set [2]: humans; prior art U.S. Pat. No. 5,880,117; cited from earlier work.

Turning to `O=c1cc(-c2ccccc2)oc2c1ccc1ccccc12` [7,8-benzoflavone, 2-phenyl-benzo(h)chromen-4-one], the half-life in data set [1] is 1 to 2 h.
`COc1ccc2c(=O)cc(-c3ccccc3)oc2c1` [7-methoxyflavone] came in with a half-life in data set [1] of 8 to 12 h.
In the case of `C[C@]12CC[C@H]3[C@@H](CCC4=C[C@@H](O)CC[C@@]43C)[C@@H]1CC[C@@H]2O` [4-androstene-3β, 17β-diol], in data set [2], the “period over which concentration declines after the peak” value is 3 to 4 h and the “time to peak concentration after administration” value is ≤ 90 min.
